The values below come from US12065442B2, “Tropomyosin receptor kinase (TRK) degradation compounds and methods of use” (Cullgen (Shanghai), Inc., priority 2018, dated 2024).

Bounds are passed on as bounds.

Usually IC50 stands for the midpoint of a concentration-inhibition curve.

One assay deals with KM12 cells. Put plainly: Cell viability assay (CellTiter-Glo) in KM12 cells. Format: cell-based. The conditions noted are these: Homo sapiens, 72 h; Table 2; KM12 cell viability, CellTiter-Glo, 3 days; read-out: IC50.
Regarding `Cc1ncsc1-c1ccc(CNC(=O)[C@@H]2C[C@@H](O)CN2C(=O)[C@@H](NC(=O)CCOCCC(=O)N2CCN(c3cccc(-c4cnc5ccc(N6CCC[C@@H]6c6cccc(F)c6)nn45)n3)CC2)C(C)(C)C)cc1` [CPD-007, (2S,4R)-1-((S)-2-(3-(3-(4-(6-(6-((R)-2-(3-Fluorophenyl)pyrrolidin-1-yl)imidazo[1,2-b]pyridazin-3-yl)pyridin-2-yl)piperazin-1-yl)-3-oxopropoxy)propanamido)-3,3-dimethylbutanoyl)-4-hydroxy-N-(4-(4-methylthiazol-5-yl)benzyl)pyrrolidine-2-carboxamide], the concentration for half-maximal inhibition (IC50) is > 1000 nM. The same measure, in the same setting: the same measure for `Cc1ncsc1-c1ccc(CNC(=O)[C@@H]2C[C@@H](O)CN2C(=O)[C@@H](NC(=O)COCCOCCOCC(=O)N2CCN(c3cccc(-c4cnc5ccc(N6CCC[C@@H]6c6cccc(F)c6)nn45)n3)CC2)C(C)(C)C)cc1` [CPD-011, (2S,4R)-1-((S)-2-(tert-butyl)-14-(4-(6-(6-((R)-2-(3-Fluorophenyl)pyrrolidin-1-yl)imidazo[1,2-b]pyridazin-3-yl)pyridin-2-yl)piperazin-1-yl)-4,14-dioxo-6,9,12-trioxa-3-azatetradecanoyl)-4-hydroxy-N-(4-(4-methylthiazol-5-yl)benzyl)pyrrolidine-2-carboxamide]: > 1000 nM.

In the case of `Cc1ncsc1-c1ccc(CNC(=O)[C@@H]2C[C@@H](O)CN2C(=O)[C@@H](NC(=O)CCOCCOCCC(=O)N2CCN(c3cccc(-c4cnc5ccc(N6CCC[C@@H]6c6cccc(F)c6)nn45)n3)CC2)C(C)(C)C)cc1` [CPD-020, (2S,4R)-1-((S)-2-(3-(2-(3-(4-(6-(6-((R)-2-(3-Fluorophenyl)pyrrolidin-1-yl)imidazo[1,2-b]pyridazin-3-yl)pyridin-2-yl)piperazin-1-yl)-3-oxopropoxy)ethoxy)propanamido)-3,3-dimethylbutanoyl)-4-hydroxy-N-(4-(4-methylthiazol-5-yl)benzyl)pyrrolidine-2-carboxamide], the half-inhibitory concentration (IC50) worked out at 200 nM. As to `O=C1CCC(N2C(=O)c3cccc(NCCCCCCC(=O)N4CCN(c5cccc(-c6cnc7ccc(N8CCC[C@@H]8c8cccc(F)c8)nn67)n5)CC4)c3C2=O)C(=O)N1` (stereo partly drawn) [CPD-009, 2-(2,6-Dioxopiperidin-3-yl)-4-((7-(4-(6-(6-((R)-2-(3-fluorophenyl)pyrrolidin-1-yl)imidazo[1,2-b]pyridazin-3-yl)pyridin-2-yl)piperazin-1-yl)-7-oxoheptyl)amino)isoindoline-1,3-dione], the 50% inhibitory concentration (IC50) was determined as 35 nM. The same measure, in the same setting: the same measure for `Cc1ncsc1-c1ccc(CNC(=O)[C@@H]2C[C@@H](O)CN2C(=O)[C@@H](NC(=O)CCCC(=O)N2CCN(c3cccc(-c4cnc5ccc(N6CCC[C@@H]6c6cccc(F)c6)nn45)n3)CC2)C(C)(C)C)cc1` [CPD-012, (2S,4R)-1-((S)-2-(5-(4-(6-(6-((R)-2-(3-Fluorophenyl)pyrrolidin-1-yl)imidazo[1,2-b]pyridazin-3-yl)pyridin-2-yl)piperazin-1-yl)-5-oxopentanamido)-3,3-dimethylbutanoyl)-4-hydroxy-N-(4-(4-methylthiazol-5-yl)benzyl)pyrrolidine-2-carboxamide]: > 1000 nM. `O=C(CN1CCN(c2ccc(C(=O)Nc3n[nH]c4ccc(Cc5cc(F)cc(F)c5)cc34)c(NC3CCOCC3)c2)CC1)NCCOCCOCCOCCNc1cccc2c1C(=O)N(C1CCC(=O)NC1=O)C2=O` (stereo not shown) [CPD-064, N-(5-(3,5-difluorobenzyl)-1H-indazol-3-yl)-4-(4-(14-((2-(2,6-dioxopiperidin-3-yl)-1,3-dioxoisoindolin-4-yl)amino)-2-oxo-6,9,12-trioxa-3-azatetradecyl)piperazin-1-yl)-2-((tetrahydro-2H-pyran-4-yl)amino)benzamide]: the IC50 came to 14.9 nM.

The assay is the same for the next values; noted with them: Homo sapiens, 72 h; Table 3; KM12 cell viability, CellTiter-Glo, 3 days; read-out: IC50.
On to `O=C(CN1CCN(c2cccc(-c3cnc4ccc(N5CCC[C@@H]5c5cccc(F)c5)nn34)n2)CC1)NCCCCCCCCNc1cccc2c1C(=O)N(C1CCC(=O)NC1=O)C2=O` (stereo partly drawn) [TR-102, N-(8-((2-(2,6-dioxopiperidin-3-yl)-1,3-dioxoisoindolin-4-yl)amino)octyl)-2-(4-(6-(6-((R)-2-(3-fluorophenyl)pyrrolidin-1-yl)imidazo[1,2-b]pyridazin-3-yl)pyridin-2-yl)piperazin-1-yl)acetamide], for which the half-maximal inhibitory concentration (IC50) was 44.4 nM. Turning to `O=C1CCC(N2C(=O)c3ccc(NC4CN(c5cccc(-c6cnc7ccc(N8CCC[C@@H]8c8cccc(F)c8)nn67)n5)C4)cc3C2=O)C(=O)N1` (stereo partly drawn) [TR-175, 2-(2,6-Dioxopiperidin-3-yl)-5-((1-(6-(6-((R)-2-(3-fluorophenyl)pyrrolidin-1-yl)imidazo[1,2-b]pyridazin-3-yl)pyridin-2-yl)azetidin-3-yl)amino)isoindoline-1,3-dione], the IC50 is 40.8 nM.

As to `O=C1CCC(N2C(=O)c3ccc(NCCCCCCC(=O)N4CCN(c5cccc(-c6cnc7ccc(N8CCC[C@@H]8c8cccc(F)c8)nn67)n5)CC4)cc3C2=O)C(=O)N1` (stereo partly drawn) [TR-117, 2-(2,6-Dioxopiperidin-3-yl)-5-((7-(4-(6-(6-((R)-2-(3-fluorophenyl)pyrrolidin-1-yl)imidazo[1,2-b]pyridazin-3-yl)pyridin-2-yl)piperazin-1-yl)-7-oxoheptyl)amino)isoindoline-1,3-dione], the 50% inhibitory concentration (IC50) worked out at 4.3 nM. With `O=C(CN1CCN(c2cccc(-c3cnc4ccc(N5CCC[C@@H]5c5cccc(F)c5)nn34)n2)CC1)NCCOCCOCCNc1ccc2c(c1)C(=O)N(C1CCC(=O)NC1=O)C2=O` (stereo partly drawn) [TR-134, N-(2-(2-(2-((2-(2,6-dioxopiperidin-3-yl)-1,3-dioxoisoindolin-5-yl)amino)ethoxy)ethoxy)ethyl)-2-(4-(6-(6-((R)-2-(3-fluorophenyl)pyrrolidin-1-yl)imidazo[1,2-b]pyridazin-3-yl)pyridin-2-yl)piperazin-1-yl)acetamide], the half-maximal inhibitory concentration (IC50) was determined as 5.6 nM. On the same count and under the same terms, then `O=C1CCC(N2Cc3cc(CCCN4CCN(c5cccc(-c6cnc7ccc(N8CCC[C@@H]8c8cccc(F)c8)nn67)n5)CC4)ccc3C2=O)C(=O)N1` (stereo partly drawn) [TR-186, 3-(5-(3-(4-(6-(6-((R)-2-(3-fluorophenyl)pyrrolidin-1-yl)imidazo[1,2-b]pyridazin-3-yl)pyridin-2-yl)piperazin-1-yl)propyl)-1-oxoisoindolin-2-yl)piperidine-2,6-dione], with 5.8 nM. On the same count and under the same terms, then `O=C1CCC(N2Cc3ccc(NCCN4CCN(c5cccc(-c6cnc7ccc(N8CCC[C@@H]8c8cccc(F)c8)nn67)n5)CC4)cc3C2=O)C(=O)N1` (stereo partly drawn) [TR-196, 3-(6-((2-(4-(6-(6-((R)-2-(3-fluorophenyl)pyrrolidin-1-yl)imidazo[1,2-b]pyridazin-3-yl)pyridin-2-yl)piperazin-1-yl)ethyl)amino)-1-oxoisoindolin-2-yl)piperidine-2,6-dione], with 3.1 nM; and `O=C1CCC(N2C(=O)c3ccc(NCCC4CN(c5cccc(-c6cnc7ccc(N8CCC[C@@H]8c8cccc(F)c8)nn67)n5)C4)cc3C2=O)C(=O)N1` (stereo partly drawn) [TR-193, 2-(2,6-Dioxopiperidin-3-yl)-5-((2-(1-(6-(6-((R)-2-(3-fluorophenyl)pyrrolidin-1-yl)imidazo[1,2-b]pyridazin-3-yl)pyridin-2-yl)azetidin-3-yl)ethyl)amino)isoindoline-1,3-dione], with 1100 nM.

Regarding `O=C(CN1CCN(c2ccc(C(=O)Nc3n[nH]c4ccc(Cc5cc(F)cc(F)c5)cc34)c(NC3CCOCC3)c2)CC1)NCCCCCNc1ccc2c(c1)C(=O)N(C1CCC(=O)NC1=O)C2=O` (stereo not shown) [TR-164, N-(5-(3,5-Difluorobenzyl)-1H-indazol-3-yl)-4-(4-(2-((5-((2-(2,6-dioxopiperidin-3-yl)-1,3-dioxoisoindolin-5-yl)amino)pentyl)amino)-2-oxoethyl)piperazin-1-yl)-2-((tetrahydro-2H-pyran-4-yl)amino)benzamide], the half-inhibitory concentration (IC50) is 7.8 nM. Still for that read-out and setting: the same measure for `O=C1CCC(N2C(=O)c3ccc(NCCCCCCCC(=O)N4CCN(c5cccc(-c6cnc7ccc(N8CCC[C@@H]8c8cccc(F)c8)nn67)n5)CC4)cc3C2=O)C(=O)N1` (stereo partly drawn) [TR-118, 2-(2,6-Dioxopiperidin-3-yl)-5-((8-(4-(6-(6-((R)-2-(3-fluorophenyl)pyrrolidin-1-yl)imidazo[1,2-b]pyridazin-3-yl)pyridin-2-yl)piperazin-1-yl)-8-oxooctyl)amino)isoindoline-1,3-dione]: 6.3 nM.

The assay is the same for the next values; noted with them: Homo sapiens, 72 h; Table 4; KM12 cell viability, CellTiter-Glo, 3 days; read-out: IC50.
In the case of `O=C1CCC(N2Cc3cc(N4CCN(c5cccc(-c6cnc7ccc(N8CCC[C@@H]8c8cccc(F)c8)nn67)n5)CC4)ccc3C2=O)C(=O)N1` (stereo partly drawn) [TR-207, 3-(5-(4-(6-(6-((R)-2-(3-Fluorophenyl)pyrrolidin-1-yl)imidazo[1,2-b]pyridazin-3-yl)pyridin-2-yl)piperazin-1-yl)-1-oxoisoindolin-2-yl)piperidine-2,6-dione], the 50% inhibitory concentration (IC50) amounted to 31.3 nM. The same measure, in the same setting: the same measure for `O=C1CCC(N2C(=O)c3ccc(NCC(=O)NC4CN(c5cccc(-c6cnc7ccc(N8CCC[C@@H]8c8cccc(F)c8)nn67)n5)C4)cc3C2=O)C(=O)N1` (stereo partly drawn) [TR-213, 2-((2-(2,6-Dioxopiperidin-3-yl)-1,3-dioxoisoindolin-5-yl)amino)-N-(1-(6-(6-((R)-2-(3-fluorophenyl)pyrrolidin-1-yl)imidazo[1,2-b]pyridazin-3-yl)pyridin-2-yl)azetidin-3-yl)acetamide]: 22.7 nM.

As for `O=C1CCC(N2C(=O)c3ccc(N4CCC(CN5CCN(c6cccc(-c7cnc8ccc(N9CCC[C@@H]9c9cccc(F)c9)nn78)n6)CC5)C4)cc3C2=O)C(=O)N1` (stereo partly drawn) [TR-225, 2-(2,6-Dioxopiperidin-3-yl)-5-(3-((4-(6-(6-((R)-2-(3-fluorophenyl)pyrrolidin-1-yl)imidazo[1,2-b]pyridazin-3-yl)pyridin-2-yl)piperazin-1-yl)methyl)pyrrolidin-1-yl)isoindoline-1,3-dione], the concentration for half-maximal inhibition (IC50) was determined as 8.8 nM. The same measure, in the same setting: the same measure for `Cn1c(=O)n(C2CCC(=O)NC2=O)c2cccc(NCCCN3CCN(c4cccc(-c5cnc6ccc(N7CCC[C@@H]7c7cccc(F)c7)nn56)n4)CC3)c21` (stereo partly drawn) [TR-217, 3-[4-[3-[4-[6-[6-[(2R)-2-(3-Fluorophenyl)pyrrolidin-1-yl]imidazo[1,2-b]pyridazin-3-yl]-2-pyridyl]piperazin-1-yl]propylamino]-3-methyl-2-oxo-benzimidazol-1-yl]piperidine-2,6-dione]: 4 nM.
